Here are results for one compound from paper PMC12379159 (Journal of Natural Products, 2025).

The target in series [1] is T1, Gal4-RORγ H479L (Homo sapiens, UniProt P51449, H479L).
T1 sequence (P51449 269-508 H479L limits assumed): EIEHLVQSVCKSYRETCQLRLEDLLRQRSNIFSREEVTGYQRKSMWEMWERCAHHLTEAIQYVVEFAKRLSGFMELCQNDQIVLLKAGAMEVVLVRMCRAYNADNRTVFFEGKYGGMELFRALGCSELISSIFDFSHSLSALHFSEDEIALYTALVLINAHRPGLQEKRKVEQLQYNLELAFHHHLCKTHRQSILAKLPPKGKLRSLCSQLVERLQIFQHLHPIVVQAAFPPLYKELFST
As to the kind of experiment: Gal4-RORγ H479L mutant luciferase assay. The conditions noted are these: 5 μM.
Protocol: Gal4-hRORγ H323A and H479L mutants were generated using the QuikChange Lightning Site-Directed Mutagenesis Kit according to the manufacturer’s instructions. Briefly, 10 ng template DNA (Gal4-hRORγ) was PCR-amplified with the respective mutagenic forward and reverse primers listed in Table S3, which were designed using the QuikChange Primer Design tool (https://www.agilent.com/store/primerDesignProgram.jsp). […] Two μL of the PCR product were then transformed into XL1-Blue competent E. coli according to a protocol provided by NEB. […] After centrifuging the main culture at 5691g for 10 min, the supernatant was decanted, and plasmid preparation was performed using the PureLink HiPure Plasmid Midiprep Kit according to the manufacturer’s instructions. DNA yields and purities were checked using a NanoDrop 2000c (Thermo Fisher Scientific, Waltham, MA, USA).

In series [2] the test system is interleukin 23 receptor (Il23r). Briefly: RT-qPCR of Il23r in EL-4-mRORγt cells. The series is classed as cell-based, murine. As to conditions: indicated concentrations, 20–24 h, then 4.5-h PMA and ionomycin. The protocol: (§1) For RT-qPCR assays, 5 × 10^5 EL-4-mRORγt cells were seeded in 500 μL complete DMEM per well of a 24-well plate and treated with the vehicle control, the positive control, or the compounds of interest. After incubation for 20–24 h, cells were stimulated with Cell Activation Cocktail (PMA: 40.5 μM, ionomycin: 669.3 μM; 500X) for 4.5 h. Afterward, total RNA was isolated using the innuPREP RNA Mini Kit 2.0 according to the manufacturer’s instructions. According to the manufacturer’s instructions, 1 μg RNA was reverse-transcribed into cDNA using the High-Capacity cDNA Reverse Transcription Kit. RT-qPCR was performed using the Luna Universal qPCR Master Mix on a LightCycler 480 (Roche Diagnostics, Rotkreuz, Switzerland) according to the manufacturer’s instructions. […] Livak’s 2−ΔΔCt method was employed to determine the expression levels of RORγ target genes. This involved normalizing the target gene expression to the expression levels of the control gene 18s, followed by further normalization to the vehicle control.
Background: In qPCR the cycle at which signal appears reflects the starting amount.

For series [3], the system named is HEK293 cells. Briefly: Resazurin conversion assay in HEK293 cells. The series is classed as cell-based, human. As to conditions: 5 μM, 18 h. The protocol:
To check the metabolic activity of cells correlating with cell viability, cells were treated with the vehicle control (0.1% DMSO), digitonin as the positive control for cytotoxicity at 20 μg/mL (HEK293 cells) or 50 μg/mL (EL-4-mRORγt cells), or the compounds of interest at 5 μM for 18 h (HEK293 cells) or 20–24 h (EL-4-mRORγt cells). The next day, the medium was carefully removed and replaced with stripped DMEM without phenol red, containing 10 μg/mL resazurin sodium salt. Cells were incubated for 5 h before RFU values were measured at λem = 590 nm using a spectrophotometer. Cell viability was calculated as follows: Cell viability(%)=100×RFU value after compound treatment/RFU value after vehicle control treatment Cytotoxicity was defined as cell viability under 70% according to the ISO 10993–5 guidelines. Cell viability <90% is explicitly stated in the respective figure.
(Alamar Blue is a resazurin reagent that responds to reducing activity.)

Series [4] has as its target T2, hRORγ LBD (Homo sapiens, UniProt P51449).
T2 construct: His tag (N, cleaved yes); made in house; host or cells: Escherichia coli BL21 DE3
T2 sequence (P51449 264-518): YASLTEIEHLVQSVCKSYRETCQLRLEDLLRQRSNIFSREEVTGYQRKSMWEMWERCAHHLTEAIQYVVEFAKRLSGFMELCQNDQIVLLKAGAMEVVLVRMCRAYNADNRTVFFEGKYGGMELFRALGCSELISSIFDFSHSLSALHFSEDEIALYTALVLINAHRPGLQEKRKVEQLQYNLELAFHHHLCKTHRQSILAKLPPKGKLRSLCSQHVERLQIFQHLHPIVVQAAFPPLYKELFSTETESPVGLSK
As to the kind of experiment: Thermal stability by nano differential scanning fluorimetry (nanoDSF). Format: binding. As to conditions: RORγ-LBD with 4 equiv ligand vs without ligand; mean ± SD. As to the method:
Soluble proteins were purified on Ni Hitrap FFcrude column (Cytiva), followed by His tag removal by thrombin (MP Biomedicals) cleavage and by size exclusion chromatography on HiLoad Superdex200 column (Cytiva) equilibrated in 20 mM Tris-HCl pH 7.5, 150 mM NaCl, 1 mM TCEP (Hampton Research). Purity and homogeneity of the hRORγ LBD were assessed by SDS-PAGE. The purified protein was concentrated to 0.5–1.0 mg/mL with an Amicon Ultra 10 kDa MWCO. The aliquots of purified LBD were incubated with 4 equiv ligands or vehicle for thermal stability experiments.
Fluorescence-based thermal experiments were performed using a Prometheus NT.48 (NanoTemper Technologies, Germany) with grade standard capillaries containing 10 μL of RORγLBD with different ligands. […] NanoTemper PR. Stability Analysis v1.0.2 was used to fit the data and determine the melting temperatures Tm.
In general terms: Differential scanning fluorimetry follows unfolding on heating by fluorescence.

The target in series [5] is T3, luciferase (Photinus pyralis, UniProt P08659).
T3 construct: expressed in transfected cells; host or cells: HEK293
T3 sequence (P08659 whole entry): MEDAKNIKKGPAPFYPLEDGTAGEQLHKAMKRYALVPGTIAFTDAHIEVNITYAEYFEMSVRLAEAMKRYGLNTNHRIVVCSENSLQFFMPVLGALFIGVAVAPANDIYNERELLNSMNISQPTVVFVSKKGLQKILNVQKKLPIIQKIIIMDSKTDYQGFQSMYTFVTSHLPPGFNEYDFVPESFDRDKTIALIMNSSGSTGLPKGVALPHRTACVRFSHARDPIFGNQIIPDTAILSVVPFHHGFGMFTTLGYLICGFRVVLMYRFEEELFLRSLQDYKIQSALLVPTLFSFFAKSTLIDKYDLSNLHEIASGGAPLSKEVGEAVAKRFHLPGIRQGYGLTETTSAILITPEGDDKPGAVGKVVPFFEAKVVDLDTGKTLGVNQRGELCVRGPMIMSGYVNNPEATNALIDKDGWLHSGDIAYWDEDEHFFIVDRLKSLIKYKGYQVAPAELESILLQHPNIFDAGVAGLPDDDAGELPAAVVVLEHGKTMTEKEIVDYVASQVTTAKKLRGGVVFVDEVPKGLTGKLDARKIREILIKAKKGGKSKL
As to the kind of experiment: Direct luciferase inhibition check (cells transfected only with pTK-MH100 × 4-LUC and eGFP-N1). The conditions noted are these: 5 μM. The series is classed as cell-based. The protocol:
For luciferase assays, 8 × 10^6 HEK293 cells were seeded on 150 mm cell culture dishes and incubated for 5 h. Afterward, cells were transfected with the calcium phosphate coprecipitation method using 5 μg of the nuclear receptor (Gal4-hRORγ or full-length human RORγ), 5 μg of a luciferase reporter (pTK-MH100 × 4-LUC for Gal4-hRORγ experiments or RORE-LUC for full-length human RORγ experiments) and 3 μg eGFP-N1 (for assessing transfection efficiency) plasmid DNA and incubated overnight. […] The medium was changed the following day, and cells were further incubated for another four to 5 h before trypsin/EDTA was added to detach them from the dishes. […] RLUs were normalized to relative fluorescence units (RFU) to account for differences in cell number and transfection efficiency and then normalized to the vehicle control. Results are expressed as fold activation relative to the vehicle control.

Series [6] relates to Il17a and Il17f (Il17a/f). Briefly: RT-qPCR of Il17a and Il17f in EL-4-mRORγt cells. As to conditions: indicated concentrations, 20–24 h, then 4.5-h PMA and ionomycin. The series is classed as cell-based, murine. As to the method: as §1

On to `C=C(C)[C@@H]1CC[C@]2(C(=O)O)CC[C@]3(C)[C@H](CC[C@@H]4[C@@]5(C)C/C(=C/c6ccco6)C(=O)C(C)(C)[C@@H]5CC[C@]43C)[C@@H]12` [Compound 15, (2Z)-2-(2-furanylmethylene)-3-oxolup-20(29)-en-28-oic acid], for which, in series [1], the “Activity on Gal4-RORγ H479L vs WT” value was “loss of activity”. Besides, in series [2], the Il23r expression result is recorded as “concentration-dependent down-regulation”. Further, in series [3], the “Cytotoxic effects, resazurin conversion assay” value was “no cytotoxic effects”. Moreover, in series [4], the “ΔTm measured with nano differential scanning fluorimetry” value was 9.6 ± 0.4 °C. Besides, in series [5], the “Inhibition of luciferase enzyme activity” value is reported as “did not inhibit luciferase enzyme activity”. Moreover, in series [6], the Il17a expression entry was “failed to affect Il17a expression levels” and the Il17f expression entry was “slight yet concentration-dependent decrease”.
